Earlier results on one compound are cited in US7141607B1, “Methods and compositions for treating and inhibiting retinal neovascularization” (Insite Vision Incorporated, priority 2000, dated 2006).

This data set concerns retinal neovascularization. Conditions: IP injection on days 12, 14 and 16; same animal model.

On to `CNC(=O)[C@H](Cc1ccccc1)NC(=O)[C@H](CC(C)C)[C@H](CSc1cccs1)C(=O)NO` (relative stereo) [batimastat, [2-R-[1(S*),2R*,3S*]]-N^4-hydroxy-N^1-[2-(methylamino)-2-oxo-1-(phenylmethyl)ethyl]-2-(2-methylpropyl)-3-[(2-thienylthio)methyl]butanediamide], for which the reduction in neovascularization was 72%.
